From EP4741383A1, “COMPOUND AND USE THEREOF AS ANTI-CANCER DRUG” (Tyligand Bioscience (Shanghai) Limited, priority 2023, dated 2025)

test system: NCI-H358; test: CellTiter-Glo cell proliferation inhibition, NCI-H358; format: cell-based; settings: Homo sapiens; NCI-H358 (lung cancer cell line), 2D, 72 hours; read-out: Example IC50 (µM) NCI-H358(2D)
Source text: This experiment used the CellTiter-Glo® Luminescent Cell Viability Assay kit from Promega to evaluate the inhibitory activity of the disclosed compounds on the proliferation of the following cell lines: 4T1 (mouse breast cancer cell line), A20 (mouse B-cell lymphoma cell line), A2780 (human ovarian cancer cell line), AsPC-1 (pancreatic cancer cell line), B16F10 (mouse melanoma cell line), BT549 (human breast cancer cell line), CT26 (mouse colon cancer cell line), EMT6 (mouse breast cancer cell line), HCT116 (colorectal cancer cell line), Jurket (acute leukemia cell line), KP-4 (pancreatic cancer cell line), LL/2 (mouse lung cancer cell line), MCF7 (breast cancer cell line), […] NCI-H358 (lung cancer cell line), NCI-H727 (gastric cancer cell line), NCI-1944 (lung cancer cell line), Pan 04.03 (pancreatic cancer cell line), SK-BR-3 (breast cancer cell line), THP-1 (leukemia cell line), TOV21G (ovarian cancer cell line), U87MG (glioblastoma cell line), and UM-UC-a (bladder cancer cell line).
All cell lines were purchased from Nanjing Kebai Biotechnology Co., Ltd. The following materials were also used in the experiment: RPMI-1640 media (HyClone, catalog number #SH30022.01), McCoy's 5A media (Thermo Fisher, catalog number #16600-082), MCDB 105 media (Sigma, catalog number #117-500), Medium 199 (Thermo Fisher, catalog number #11150-059), MEM media (Thermo Fisher, catalog number #11095-080), DMEM media (HyClone, catalog number #SH30027.01), fetal bovine serum (FBS) (ExCell, catalog number # M4530), Sodium Pyruvate (100Mm) (Thermo Fisher, catalog number #11360-070), and MEM NEAA (100X) (Thermo Fisher). […]
Cells were cultured according to the instructions provided by the cell supplier (Nanjing Kebai Biotechnology Co., Ltd.). […] Suspension or adherent cells were collected, and cell viability was determined using the trypan blue exclusion method, ensuring that cell viability was above 90%. […]

O=C(Nc1ccc(-c2csc(CO)c2)cc1)C(=O)Nc1ccc(-c2cc3cc(F)c(-c4nnn[nH]4)cc3n2C2CCC2)cc1 [Example 1] and O=C(Nc1ccc(-c2cc3cc(F)c(-c4nnn[nH]4)cc3n2C2CCC2)cc1)C(=O)Nc1ccc(N2CCC3(CCC(O)C3)CC2)cc1 (stereo not drawn) [Example 100] are within 1.5-fold of each other in IC50: 0.074 µM for the first, 0.063 µM for the second.

For CC1(n2c(-c3ccc(NC(=O)C(=O)Nc4ccc(N5CCC6(CCOC6)CC5)cc4)cc3)cc3cc(F)c(-c4nnn[nH]4)cc32)CCC1 [Example 68], the IC50 was 0.072 µM.
